Results as given in article PMC8286840, “Identifying SARS-CoV-2 antiviral compounds by screening for small molecule inhibitors of Nsp3 papain-like protease” (Biochemical Journal, 2021).
Structures can show the parent of a compound that is named as a salt. Where two headings read alike, the source gives them in different places.

Experiments:
[1] = target: T1, SARS-CoV-2 PLpro (nsp3 1564–1878) (Severe acute respiratory syndrome coronavirus 2, UniProt P0DTD1); assay: biochemical; parameters: FRET-quenched peptide (Pro3) cleavage by PLpro, 10 min pre-incubation, slope over 20 min, normalised to no-compound control; conditions: high concentration screen, read-out: % of control remaining
Protocol: The plates were organized with columns 3–22 containing the compounds; the remaining columns were used for reaction controls including substrate only and substrate with enzyme but no compound (Figure 3Aii). The PLpro enzyme was pre-incubated with the compounds for 10 min, and then the reaction was initiated by the addition of substrate. […] We incubated the inhibitors with PLpro before the enzymatic reaction so that the slow-binding inhibitors will not be missed out [21]. […] Fluorescence was read on a Spark multimode microplate reader (Tecan) with an excitation wavelength at 330 nm and emission wavelength at 420 nm. […] An amount of 5 µl of the enzyme was pre-incubated with compounds for 10 min before the addition of 15 µl substrate. Fluorescence was monitored at 2 min for 20 min with 3 min intervals giving a total of seven readings.

[2] = target: T1, SARS-CoV-2 PLpro (nsp3 1564–1878); assay: biochemical; parameters: FRET-quenched peptide (Pro3) cleavage by PLpro, 10 min pre-incubation, slope over 20 min, normalised to no-compound control; conditions: low concentration screen, read-out: % of control remaining

Question: For `CC1(C)CC(=O)C2=C(C1)NC(=S)NC2c1cccc(O)c1` (stereo not drawn) [4-(3-hydroxyphenyl)-7,7-dimethyl-2-thioxo-2,3,4,6,7,8-hexahydro-5(1H)-quinazolinone], which remaining activity at 3.75 µM ([1]; Well no.=5634) is on record?
Answer: 95.1%

Question: And the remaining activity at 1.25 µM ([2]; Well no.=5634)?
Answer: 94.5%

Question: What does the source list for `COc1ccc(CCNC[C@@H](O)c2ccc(O)cc2)cc1OC` [R(-)-Denopamine]?
Answer: remaining activity at 3.75 µM ([1]; Well no.=1498): 100%; remaining activity at 1.25 µM ([2]; Well no.=1498): 103%

Question: With `N[C@@H](CC(=O)N1CCn2c(nnc2C(F)(F)F)C1)Cc1cc(F)c(F)cc1F` [Sitagliptin phosphate monohydrate] as the molecule, how does the remaining activity at 3.75 µM ([1]; Well no.=4644) read?
Answer: 102%

Question: What about the remaining activity at 1.25 µM ([2]; Well no.=4644) of the same molecule?
Answer: 105%

Question: With `Cc1cc(N)c2ccccc2[n+]1CCCCCCCCCC[n+]1c(C)cc(N)c2ccccc21` [Dequalinium dichloride] as the molecule, how does the remaining activity at 3.75 µM ([1]; Well no.=449) read?
Answer: 96.8%

Question: And the remaining activity at 1.25 µM ([2]; Well no.=449)?
Answer: 101%

Question: What does the source list for `CNc1ncnc2c1ncn2[C@@H]1O[C@H](CO)[C@@H](O)[C@H]1O` [N6-Methyladenosine]?
Answer: remaining activity at 3.75 µM ([1]; Well no.=930): 96.9%; remaining activity at 3.75 µM ([1]; Well no.=8052): 96.2%; remaining activity at 1.25 µM ([2]; Well no.=930): 97.7%; remaining activity at 1.25 µM ([2]; Well no.=8052): 95.7%

Question: With `O=C(Nc1cccnc1)N1CCC(Cc2cccc(Oc3ccc(C(F)(F)F)cn3)c2)CC1` [PF-3845] as the molecule, how does the remaining activity at 3.75 µM ([1]; Well no.=4643) read?
Answer: 90.4%

Question: What about the remaining activity at 1.25 µM ([2]; Well no.=4643) of the same molecule?
Answer: 96.6%

Question: With `O=C1c2c(O)cccc2C([C@@H]2O[C@H](CO)[C@@H](O)[C@H](O)[C@H]2O)c2cc(CO)cc(O)c21` (stereo partly drawn) [Aloin] as the molecule, how does the remaining activity at 3.75 µM ([1]; Well no.=8338) read?
Answer: 97.8%

Question: And the remaining activity at 1.25 µM ([2]; Well no.=8338)?
Answer: 99.2%

Question: What does the source list for `CCN1CCN(c2ccc(Nc3cc(N(C)C(=O)Nc4c(Cl)c(OC)cc(OC)c4Cl)ncn3)cc2)CC1` [BGJ398 (NVP-BGJ398)]?
Answer: remaining activity at 3.75 µM ([1]; Well no.=5140): 99.3%; remaining activity at 1.25 µM ([2]; Well no.=5140): 97%

Question: Which remaining activity at 3.75 µM ([1]; Well no.=3661) does the source give for `O=C1CCC[C@@H]2[C@H]3CCCN4CCC[C@@H](CN12)[C@@H]34` [Matrine] here?
Answer: 103%

Question: What about the remaining activity at 3.75 µM ([1]; Well no.=8341) of the same molecule?
Answer: 94.7%

Question: And the remaining activity at 1.25 µM ([2]; Well no.=3661)?
Answer: 101%

Question: What about the remaining activity at 1.25 µM ([2]; Well no.=8341) of the same molecule?
Answer: 100%

Question: How did the remaining activity at 3.75 µM ([1]; Well no.=397) turn out when `N=C(N)N1CCc2ccccc2C1` [Debrisoquin sulfate] was run?
Answer: 104%

Question: What about the remaining activity at 1.25 µM ([2]; Well no.=397) of the same molecule?
Answer: 103%

Question: Which results are given for `Cc1cc(NC(=O)CS(=O)(=O)c2cn(Cc3cc(Br)ccc3F)c3ccccc23)no1` [ML169]?
Answer: remaining activity at 3.75 µM ([1]; Well no.=5507): 97.5%; remaining activity at 1.25 µM ([2]; Well no.=5507): 99%

Question: What does the source list for `CC(=O)c1c(C)c2cnc(Nc3ccc(N4CCNCC4)cn3)nc2n(C2CCCC2)c1=O` [Palbociclib (isethionate)]?
Answer: remaining activity at 3.75 µM ([1]; Well no.=7316): 103%; remaining activity at 1.25 µM ([2]; Well no.=7316): 103%

Question: Which remaining activity at 3.75 µM ([1]; Well no.=2989) does the source give for `CN(C)CCOc1cc(-c2cn[nH]c2)ccc1NC(=O)C1COc2ccccc2O1` (stereo not drawn) [SR3677] here?
Answer: 98.3%

Question: And the remaining activity at 1.25 µM ([2]; Well no.=2989)?
Answer: 97.2%

Question: `Cc1ccc(O)c(N=Nc2ccccc2)n1` [SIB 1757] was tested. Which remaining activity at 3.75 µM ([1]; Well no.=1371) did it give?
Answer: 102%

Question: And the remaining activity at 1.25 µM ([2]; Well no.=1371)?
Answer: 99.7%

Question: `NCCc1c[nH]cn1` [Histamine dihydrochloride] was tested. Which remaining activity at 3.75 µM ([1]; Well no.=564) did it give?
Answer: 101%

Question: And the remaining activity at 1.25 µM ([2]; Well no.=564)?
Answer: 103%

Question: Which remaining activity at 3.75 µM ([1]; Well no.=6980) does the source give for `Cc1ccc2nc(N)[nH]c(=O)c2c1Sc1ccncc1` [Nolatrexed dihydrochloride] here?
Answer: 100%

Question: What about the remaining activity at 1.25 µM ([2]; Well no.=6980) of the same molecule?
Answer: 103%

Question: `Nc1ncnc2c1C(=O)N(c1ccc(C3CCC(CC(=O)O)CC3)cc1)CCO2` (stereo not drawn) [{4-[4-(4-amino-5-oxo-7,8-dihydropyrimido[5,4-f][1,4]oxazepin-6(5H)-yl)phenyl]cyclohexyl}acetic acid] was tested. Which remaining activity at 3.75 µM ([1]; Well no.=5830) did it give?
Answer: 103%

Question: And the remaining activity at 1.25 µM ([2]; Well no.=5830)?
Answer: 105%

Question: What does the source list for `N[C@@H](CS(=O)O)C(=O)O` [L-Cysteinesulfinic Acid]?
Answer: remaining activity at 3.75 µM ([1]; Well no.=128): 96.5%; remaining activity at 1.25 µM ([2]; Well no.=128): 93.4%

Question: For `CCOc1ccccc1-n1c(C(C)N2CCN(C(=O)COc3ccc(Cl)cc3)CC2)nc2ccccc2c1=O` (stereo not drawn) [Erastin], which remaining activity at 3.75 µM ([1]; Well no.=6732) is on record?
Answer: 96.5%

Question: And the remaining activity at 1.25 µM ([2]; Well no.=6732)?
Answer: 98.2%

Question: For `O=C1CCc2cc(OCCCCc3nnnn3C3CCCCC3)ccc2N1` [Cilostazol], which remaining activity at 3.75 µM ([1]; Well no.=281) is on record?
Answer: 95.3%

Question: And the remaining activity at 1.25 µM ([2]; Well no.=281)?
Answer: 94.5%

Question: What does the source list for `Nc1ncnc2c1ncn2[C@@H]1O[C@H](COP(=O)(O)OP(=O)(O)OP(=O)(O)OP(=O)(O)OC[C@H]2O[C@@H](n3cnc4c(N)ncnc43)[C@H](O)[C@@H]2O)[C@@H](O)[C@H]1O` [P1,P4-Di(adenosine-5')tetraphosphate triammonium]?
Answer: remaining activity at 3.75 µM ([1]; Well no.=731): 94.1%; remaining activity at 1.25 µM ([2]; Well no.=731): 96.1%

Question: For `O=C(NC1CCNCC1)c1n[nH]cc1NC(=O)c1c(Cl)cccc1Cl` [AT-7519], which remaining activity at 3.75 µM ([1]; Well no.=2836) is on record?
Answer: 98.3%

Question: What about the remaining activity at 1.25 µM ([2]; Well no.=2836) of the same molecule?
Answer: 97.9%

Question: With `CN1C(=O)NC(Cc2c[nH]c3c(Cl)cccc23)C1=O` (racemic) [Necrostatin 2 (racemate)] as the molecule, how does the remaining activity at 3.75 µM ([1]; Well no.=6828) read?
Answer: 95%

Question: And the remaining activity at 1.25 µM ([2]; Well no.=6828)?
Answer: 99.1%

Question: What does the source list for `c1ccc([C@H]2CN3CCSC3=N2)cc1` [Levamisole]?
Answer: remaining activity at 3.75 µM ([1]; Well no.=2260): 94.2%; remaining activity at 1.25 µM ([2]; Well no.=2260): 97.8%

Question: How did the remaining activity at 3.75 µM ([1]; Well no.=8595) turn out when `NC(=O)c1ccc(CNC(=O)NC[C@H]2CN(Cc3ccc(Cl)c(Cl)c3)CCO2)cc1` [GW 766994] was run?
Answer: 103%

Question: And the remaining activity at 1.25 µM ([2]; Well no.=8595)?
Answer: 104%

Question: Which remaining activity at 3.75 µM ([1]; Well no.=1217) does the source give for `Cc1nc(N=Nc2ccc(S(=O)(=O)O)cc2S(=O)(=O)O)c(COP(=O)(O)O)c(C=O)c1O` [PPADS] here?
Answer: 101%

Question: What about the remaining activity at 1.25 µM ([2]; Well no.=1217) of the same molecule?
Answer: 102%

Question: Which results are given for `COc1cc2c(cc1OC)[C@H]1CC(=O)[C@H](CC(C)C)CN1CC2` [(+)-Tetrabenazine]?
Answer: remaining activity at 3.75 µM ([1]; Well no.=8086): 108%; remaining activity at 1.25 µM ([2]; Well no.=8086): 107%

Question: What does the source list for `COc1cc2c(cc1OC)[C@@]13CC[N+]4([O-])CC5=CCO[C@H]6CC(=O)N2[C@H]1[C@H]6[C@H]5C[C@@H]34` (stereo partly drawn) [Brucine-N-oxide]?
Answer: remaining activity at 3.75 µM ([1]; Well no.=3270): 102%; remaining activity at 1.25 µM ([2]; Well no.=3270): 99.2%

Question: Which results are given for `CCCN(CCc1ccccc1)C1CCc2c(O)cccc2C1` (racemic)?
Answer: remaining activity at 3.75 µM ([1]; Well no.=1357): 103%; remaining activity at 1.25 µM ([2]; Well no.=1357): 102%

Question: Which results are given for `CC(NC(C)(C)C)C(=O)c1cccc(Cl)c1` (stereo not drawn) [Bupropion hydrochloride]?
Answer: remaining activity at 3.75 µM ([1]; Well no.=37): 100%; remaining activity at 1.25 µM ([2]; Well no.=37): 101%

Question: Which results are given for `CN1CCN(CC/C=C2/c3ccccc3Sc3ccc(S(=O)(=O)N(C)C)cc32)CC1` [Thiothixene hydrochloride]?
Answer: remaining activity at 3.75 µM ([1]; Well no.=1281): 112%; remaining activity at 1.25 µM ([2]; Well no.=1281): 106%

Question: With `CCSC(=N)N` [S-Ethylisothiourea hydrobromide] as the molecule, how does the remaining activity at 3.75 µM ([1]; Well no.=459) read?
Answer: 101%

Question: What about the remaining activity at 1.25 µM ([2]; Well no.=459) of the same molecule?
Answer: 102%

Question: How did the remaining activity at 3.75 µM ([1]; Well no.=2838) turn out when `NC(=O)Nc1cc(-c2ccccc2)sc1C(N)=O` [IKK-2 Inhibitor XI] was run?
Answer: 103%

Question: And the remaining activity at 1.25 µM ([2]; Well no.=2838)?
Answer: 99.2%

Question: With `NCCc1ccc(O)cc1` [4-Hydroxyphenethylamine hydrochloride] as the molecule, how does the remaining activity at 3.75 µM ([1]; Well no.=1237) read?
Answer: 102%

Question: And the remaining activity at 1.25 µM ([2]; Well no.=1237)?
Answer: 101%
